We go through four molecules from patent publication US6989378B2, “Testosterone derivative” (Akzo Nobel N.V., priority 1998, dated 2006).

Data set [1] in a line: Solubility in oil solvent (amount of compound dissolved per ml of solvent). In kind it is physicochemical. The following applies: for solubility at 15 min: oil or lipid, thermodynamic from solid, dissolved by heating in waterbath of 50° C. and Vortex shaking 15 minutes. As to the method: About 20–30 mgs of compound were powdered and then dissolved in as little solvent as necessary to dissolve all the visible particles. Dissolution was accomplished by heating in a waterbath of 50° C. and shaking on a Vortex™ shaker for 15 minutes. The solubility was calculated by determining the amount of compound (in mg) dissolved per ml of solvent.

The next data set has as its system rats. The following applies: anabolic and antigonadotropic effects; cited from earlier work.
A further data set deals with monkeys. The following applies: anabolic and antigonadotropic effects; cited from earlier work.
[2] abbreviates: arachis oil, read-out: solubility arachis oil.
The mark [3] stands for this setting: oleic acid, read-out: solubility oleic acid.

Values after ≈ are worked out from the molar mass of the structure shown. Where two headings read alike, the source gives them in different places. Bounds are passed on as bounds.

As to `CCCCCCCCCCC(=O)O[C@H]1CC[C@H]2[C@H]3[C@H](CC[C@]12C)[C@H]1CCC(=O)C=C1C[C@H]3C` [MENT undecanoate, (7α,17β)-7-methyl-17-[(1-oxoundecyl)oxy]estr-4-en-3-one], the “solubility in arachis oil compared with the other androgens” value in data set [1] (arachis oil, comparison in words) is “much better than that of any of the other androgens”. Moreover, the values for the solubility at 15 min in data set [1] (setting [2]) and in data set [1] (setting [3]) were more than 200 mg/mL and not below 500 mg/mL, respectively. The “solubility in oleic acid compared with the known androgens” value in data set [1] (oleic acid, comparison in words) is recorded as “better than expected”.
Take `C[C@@H]1CC2=CC(=O)CC[C@@H]2[C@H]2CC[C@]3(C)[C@@H](O)CC[C@H]3[C@@H]21` [MENT, (7α,17β)-17-hydroxy-7-methylestr-4-en-3-one]: the solubility at 15 min in data set [1] (setting [2]) was not above 0.1 mg/mL; in data set [1] (setting [3]) it was approximately 15 mg/mL (≈ 52 mM). Besides, the “androgenic potency relative to testosterone” value in the data set on rats and with monkeys was “ten times more potent than testosterone” throughout.
Turning to `CCCCCCCCCCC(=O)O[C@H]1CC[C@H]2[C@@H]3CCC4=CC(=O)CC[C@]4(C)[C@H]3CC[C@]12C` [testosterone undecanoate, (17β)-17-[(1-Oxoundecyl)oxy]androst-4-en-3-one], the solubility at 15 min in data set [1] (setting [2]) was approximately 45 mg/mL (≈ 98.5 mM); in data set [1] (setting [3]) it was 200 to 250 mg/mL (≈ 438 to 547 mM).
The corresponding values for `C[C@]12CC[C@H]3[C@@H](CCC4=CC(=O)CC[C@@]43C)[C@@H]1CC[C@@H]2O` [testosterone] are less than 0.1 mg/mL and approximately 25 mg/mL (≈ 86.7 mM).

The solubility is the concentration that dissolves in the medium under given conditions.
